Positions count from the first letter of the chain named.

What all share (assay): cAMP accumulation
What all share (format): cell-based
Conditions in all cases: cAMP maximal response, mean ± S.E.M., SEM
For orientation: Changes in cAMP serve as a functional read-out for many G protein-coupled receptors.

One test concerns the target T1, hCTR K366A (Homo sapiens, UniProt P30988, K366A).
T1 construct: c-Myc (N); expressed in transfected cells
T1 sequence (P30988 25-474 K366A): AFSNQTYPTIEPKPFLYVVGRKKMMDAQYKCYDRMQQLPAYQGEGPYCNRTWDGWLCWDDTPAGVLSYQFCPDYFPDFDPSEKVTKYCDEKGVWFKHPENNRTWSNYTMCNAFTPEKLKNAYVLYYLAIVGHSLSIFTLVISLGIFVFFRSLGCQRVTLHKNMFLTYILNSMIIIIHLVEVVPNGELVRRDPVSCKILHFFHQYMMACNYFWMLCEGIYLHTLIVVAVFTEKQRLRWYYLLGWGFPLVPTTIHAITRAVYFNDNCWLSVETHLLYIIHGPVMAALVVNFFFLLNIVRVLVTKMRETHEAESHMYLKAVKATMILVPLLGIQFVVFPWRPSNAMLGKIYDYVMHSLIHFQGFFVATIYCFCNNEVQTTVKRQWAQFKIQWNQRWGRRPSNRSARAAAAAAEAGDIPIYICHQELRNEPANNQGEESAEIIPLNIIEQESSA
In short, it runs like this:
(§1)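 30 min ligand stimulation with IBMX present; cells seeded overnight beforehand. Ethanol extract, dried at RT.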

In the next test the target is T2, hCTR V357A (Homo sapiens, UniProt P30988, V357A).
T2 construct: c-Myc (N); expressed in transfected cells
T2 sequence (P30988 25-474 V357A): T1 sequence (P30988 25-474 K366A) with V333A, A342K
The procedure, abridged:
as §1

Another test deals with T3, hCTR I300A (Homo sapiens, UniProt P30988, I300A).
T3 construct: c-Myc (N); expressed in transfected cells
T3 sequence (P30988 25-474 I300A): T1 sequence (P30988 25-474 K366A) with I276A, A342K
In short, it runs like this:
as §1

The target of the next test is T4, hCTR V375A (Homo sapiens, UniProt P30988, V375A).
T4 construct: c-Myc (N); expressed in transfected cells
T4 sequence (P30988 25-474 V375A): T1 sequence (P30988 25-474 K366A) with A342K, V351A
In short, it runs like this: as §1

The next test addresses T5, hCTR W361A (Homo sapiens, UniProt P30988, W361A).
T5 construct: expressed in transfected cells
T5 sequence (P30988 25-474 W361A): T1 sequence (P30988 25-474 K366A) with W337A, A342K
The procedure, abridged:
as §1

As usually defined, the Emax is the maximal effect, on the per cent scale that the assay sets. Consider `CC(C)C[C@H](NC(=O)[C@H](CCCCN)NC(=O)CNC(=O)[C@H](CC(C)C)NC(=O)[C@@H](NC(=O)[C@@H]1CSSC[C@H](N)C(=O)N[C@@H](CO)C(=O)N[C@@H](CC(N)=O)C(=O)N[C@@H](CC(C)C)C(=O)N[C@@H](CO)C(=O)N[C@@H]([C@@H](C)O)C(=O)N1)C(C)C)C(=O)N[C@@H](CO)C(=O)N[C@@H](CCC(N)=O)C(=O)N[C@@H](CCC(=O)O)C(=O)N[C@@H](CC(C)C)C(=O)N[C@@H](Cc1c[nH]cn1)C(=O)N[C@@H](CCCCN)C(=O)N[C@@H](CC(C)C)C(=O)N[C@@H](CCC(N)=O)C(=O)N[C@H](C(=O)N[C@@H](Cc1ccc(O)cc1)C(=O)N1CCC[C@H]1C(=O)N[C@@H](CCCNC(=N)N)C(=O)N[C@H](C(=O)N[C@@H](CC(N)=O)C(=O)N[C@H](C(=O)NCC(=O)N[C@@H](CO)C(=O)NCC(=O)N[C@H](C(=O)N1CCC[C@H]1C(N)=O)[C@@H](C)O)[C@@H](C)O)[C@@H](C)O)[C@@H](C)O` [sCT], for which the Emax at hCTR K366A turned out to be 81 ± 5%; on hCTR V357A, 133 ± 12%; on hCTR I300A it was 113 ± 11%; at hCTR V375A, 106 ± 5%; on hCTR W361A, 126 ± 7%.

The values are drawn from publication PMC5908784, “Extracellular loops 2 and 3 of the calcitonin receptor selectively modify agonist binding and efficacy” (Biochemical Pharmacology, 2018).
